Data as given in patent US20130231347A1, “METHOD OF TREATMENT WITH BRAF INHIBITOR” (GLAXOSMITHKLINE INTELLECTUAL PROPERTY (NO.2) LIMITED, priority 2010, published 2013).
Where two headings read alike, the source gives them in different places.

Assays:
[1] = tested on: 12R5-1 (A375 F11 clone with acquired resistance to Compound A); experiment: Cell growth inhibition assay (Cell Titer Glo, 3 days); type: cell-based; conditions: Homo sapiens, A-375, 72 h, 12R5-1: NRAS WT, MEK1 HET 59delK, single agent, read-out: IC50, Single Agent Effect, Compound A
Description: (§3) A clonal isolate, hereinafter referred to as “A375 F11”, was obtained from the A375 cell line (obtained from ATCC), based on increased sensitivity to a BRAF inhibitor. A375 F11 cells were exposed to increasing concentrations of Compound A and maintained in a final concentration of 1.26 μM or 1.6 μM. 12R5-3, 12R8-1, 12R8-3, 16R5-5, 16R6-2, 16R6-3 and 16R6-4 were derived as single cell clones from mixed populations of these A375 F11 cells selected to grow in the presence of Compound A. All cells were grown in RPMI 1640 medium containing 10% Fetal Bovine Serum (FBS).
(§4) All cells were cultured without compound, e.g. Compound A, for a minimum of 72 hours prior to cell plating. Cells were assayed in a 96-well tissue culture plate (NUNC 136102) of RPMI medium containing 10% FBS for all cells at 1,000 cells per well. Approximately 24 hours after plating, cells were exposed to ten, three-fold serial dilutions of compound or the combination of the two agents at a constant molar to molar ratio, e.g. 10:1 Compound A to Compound B, in RPMI media containing 10% FBS. Cells were incubated in the presence of compounds for 3 days. ATP levels were determined by adding Cell Titer Glo® (Promega) according to the manufacturer's protocol. Briefly, Cell Titer Glo® was added each plate, incubated for 30 minutes then luminescent signal was read on the SpectraMax L plate reader with a 0.5 sec integration time. Inhibition of cell growth was estimated after treatment with compound or combination of compounds for three days and comparing the Cell Titer Glo® signal to cells treated with vehicle (DMSO). Cell growth was calculated relative to vehicle (DMSO) treated control wells.
(§5) For single agent and combination treatments, cells were exposed to compounds at a fixed-dose-ratio, and dose response curves were fit to the experimental data and analyzed using regression models.

[2] = tested on: 12R5-3 (A375 F11 clone with acquired resistance to Compound A); experiment: as above; type: cell-based; conditions: Homo sapiens, A-375, 72 h, 12R5-3: NRAS A146A/T, MEK1 WT, single agent, read-out: IC50, Single Agent Effect, Compound A
Description: as §3, §4, §5

[3] = tested on: 16R6-4 (A375 F11 clone with acquired resistance to Compound A); experiment: as above; type: cell-based; conditions: Homo sapiens, A-375, 72 h, 16R6-4: NRAS Q61Q/K, A146A/T, MEK1 P387P/S, single agent, read-out: IC50, Single Agent Effect, Compound A
Description: as §3, §4, §5

[4] = tested on: phosphorylation of MEK, ERK, S6P and cyclin D1 protein in A375 cells; experiment: Western blot of signaling effects, parental cells; type: cell-based, human; conditions: western blot (FIG. 10)
From the text: (§1) Phospho-AKT (T308), phospho-AKT (S473), AKT, ERK, phospho-S6P (S235/236), S6P, cyclin D1, phospho-MEK1/2 (S217/S221), MEK1/2, MEK1, MEK2, and cleaved PARP antibodies were purchased from Cell Signaling. Primary antibodies to GAPDH, RAF-1, BRAF, and ARAF were purchased from Santa Cruz Biotechnology. Diphospho-ERK1/2 (T202/Y204) antibodies were purchased from Sigma and p27kip1 antibodies were purchased from Epitomics. Anti-Mouse IRDYE® 800CW antibody was purchased from LI-COR Biosciences. Anti-rabbit ALEXA FLUOR® 680 antibodies were purchased from Invitrogen. Compound A, Compound B, Compound C, and PLX4032 (20) were synthesized by GlaxoSmithKline Research Labs and the structures are shown in FIG. 7.

[5] = tested on: 12R8-3 (A375 F11 clone with acquired resistance to Compound A); experiment: Cell growth inhibition assay (Cell Titer Glo, 3 days); type: cell-based; conditions: Homo sapiens, A-375, 72 h, 12R8-3: NRAS A146A/T, MEK1 WT, single agent, read-out: IC50, Single Agent Effect, Compound A
Description: as §3, §4, §5

[6] = tested on: 12R5-5 (A375 F11 clone with acquired resistance to Compound A); experiment: as above; type: cell-based; conditions: Homo sapiens, A-375, 72 h, 12R5-5: NRAS WT, MEK1 HET 59delK, single agent, read-out: IC50, Single Agent Effect, Compound A
Description: as §3, §4, §5

[7] = tested on: YUSIT1 clones that acquired resistance to Compound A (BRAF V600K); experiment: Cell growth inhibition assay, resistant YUSIT1 clones; type: cell-based, human
From the text: The YUSIT1 melanoma cells were obtained from Yale Dermatology Cell Culture Facility.

[8] = tested on: A375 F11 clones that acquired resistance to Compound A; experiment: Cell growth inhibition assay, resistant A375 clones taken together; conditions: Homo sapiens
Description: as §3, §4, §5

[9] = tested on: phosphorylation of MEK, ERK, S6P in A375 clones resistant to Compound A; experiment: Western blot of signaling effects, resistant clones; type: cell-based, human; conditions: western blot (FIG. 10)
From the text: as §1

A375 F11 cells = experiment: Cell growth inhibition assay (Cell Titer Glo, 3 days); type: cell-based; conditions: Homo sapiens, 72 h, F11: NRAS WT, MEK1 WT, single agent, mean ± std, read-out: IC50, Single Agent Effect, Compound A
Description: as §3, §4, §5

[10] = tested on: A375 cells expressing MEK1Q56P; experiment: Proliferation of BacMAM-transduced A375 cells; type: cell-based; conditions: Homo sapiens, A-375, read-out: IC50, inhibition of proliferation
Description: (§2) BacMAM constructs were generated using MEK1 cDNA and mutations in MEK1 were introduced using site directed mutagenesis. BacMAM virus particles were prepared as described in the supplemental methods. A375 cells were transduced with the indicated BacMAM virus. Forty-eight hours post transduction, cells were plated for subsequent proliferation and western blot analysis as described above.

[11] = tested on: A375 cells expressing MEK1F129L; experiment: Proliferation of BacMAM-transduced A375 cells; type: cell-based; conditions: Homo sapiens, A-375, read-out: IC50, inhibition of proliferation
Description: as §2

[12] = tested on: A375 cells expressing wild-type MEK1; experiment: Proliferation of BacMAM-transduced A375 cells; type: cell-based; conditions: Homo sapiens, A-375, read-out: IC50, inhibition of proliferation
Description: as §2

[13] = tested on: A375 cells expressing MEK1P124L; experiment: Proliferation of BacMAM-transduced A375 cells; type: cell-based; conditions: Homo sapiens, A-375, read-out: IC50, inhibition of proliferation
Description: as §2

A375 cells, Mock = experiment: Proliferation of BacMAM-transduced A375 cells; type: cell-based; conditions: Homo sapiens, A-375, read-out: IC50, inhibition of proliferation
Description: as §2

[14] = tested on: A375 cells expressing MEK1K59del; experiment: Proliferation of BacMAM-transduced A375 cells; type: cell-based; conditions: Homo sapiens, A-375, read-out: IC50, inhibition of proliferation
Description: as §2

[15] = tested on: A375 cells expressing MEK1C121S; experiment: Proliferation of BacMAM-transduced A375 cells; type: cell-based; conditions: Homo sapiens, A-375, read-out: IC50, inhibition of proliferation
Description: as §2

[16] = tested on: 12R8-1 (A375 F11 clone with acquired resistance to Compound A); experiment: Cell growth inhibition assay (Cell Titer Glo, 3 days); type: cell-based; conditions: Homo sapiens, A-375, 72 h, 12R8-1: NRAS A146A/T, MEK1 WT, single agent, read-out: IC50, Single Agent Effect, Compound A
Description: as §3, §4, §5

[17] = tested on: 16R5-5 (A375 F11 clone with acquired resistance to Compound A); experiment: as above; type: cell-based; conditions: Homo sapiens, A-375, 72 h, 16R5-5: NRAS Q61Q/K, MEK1 P387P/S, single agent, read-out: IC50, Single Agent Effect, Compound A
Description: as §3, §4, §5

[18] = tested on: 16R6-3 (A375 F11 clone with acquired resistance to Compound A); experiment: as above; type: cell-based; conditions: Homo sapiens, A-375, 72 h, 16R6-3: NRAS A146A/T, MEK1 P387P/S, single agent, read-out: IC50, Single Agent Effect, Compound A
Description: as §3, §4, §5

[19] = tested on: 16R6-2 (A375 F11 clone with acquired resistance to Compound A); experiment: as above; type: cell-based; conditions: Homo sapiens, A-375, 72 h, 16R6-2: NRAS Q61Q/K, MEK1 P387P/S, single agent, read-out: IC50, Single Agent Effect, Compound A
Description: as §3, §4, §5

Which results are given for `CC(C)(C)c1nc(-c2cccc(NS(=O)(=O)c3c(F)cccc3F)c2F)c(-c2ccnc(N)n2)s1` [Compound A, N-{3-[5-(2-Amino-4-pyrimidinyl)-2-(1,1-dimethylethyl)-1,3-thiazol-4-yl]-2-fluorophenyl}-2,6-difluorobenzenesulfonamide]?
IC50 [1]: > 10 µM; IC50 [2]: > 10 µM; IC50 [3]: > 10 µM; decrease of cyclin D1 protein levels [4]: more than 65%; inhibition of phosphorylation of MEK, ERK, and S6P [4]: more than 75%; IC50 [5]: > 10 µM; IC50 [6]: > 10 µM; IC50 ([7]; Homo sapiens, read-out: IC50, cell growth inhibition): > 0.5 µM; reduced sensitivity compared to the parental YUSIT1 cells ([7]; YUSIT1 clones resistant to Compound A, single agent (FIG. 9)): ≥ 38 fold; IC50 ([8]; A-375, read-out: IC50, cell growth): > 10 µM; IC50 ([8]; A-375, read-out: IC50, cell growth inhibition, single agent): > 10 µM; IC50 ([8]; A-375, read-out: IC50 of the combination, for Compound A): 0.178 to 0.392 µM; reduction of ERK phosphorylation [9]: less than 50%; reduction of S6P phosphorylation [9]: < 25%; IC50 (A375 F11 cells): 0.024 ± 0.017 µM; IC50 [10]: ≥ 0.42 µM; IC50 [11]: 0.14 µM; IC50 [12]: 0.028 µM; IC50 [13]: 0.084 µM; IC50 (A375 cells, Mock): 0.03 µM; IC50 [14]: 0.179 µM; IC50 [15]: ≥ 0.33 µM; IC50 [16]: > 10 µM; IC50 [17]: > 10 µM; IC50 [18]: > 10 µM; IC50 [19]: > 10 µM
